In patent US7893045B2, “Methods for treating lymphomas in certain patient populations and screening patients for said therapy” (Celgene Corporation, priority 2007, dated 2011):

Columns and labels:
[1] = tested on: relapsed and refractory aggressive non-Hodgkin's lymphoma (NHL); experiment: Clinical Study 1: Phase II oral lenalidomide monotherapy in relapsed and refractory aggressive NHL; assay type: in vivo, human; conditions: for Median progression-free survival: FIG. 1
Experimental: A multi-center, open-label, Phase II study was conducted in patients with relapsed and refractory aggressive non-Hodgkin's lymphoma (NHL). The trial was designed for oral monotherapy with 3-(4-amino-1-oxo-1,3-dihydro-isoindol-2-yl)-piperidin-2,6-dione (Revlimid® or lenalidomide) in 49 patients with relapsed and refractory aggressive NHL following one or more prior treatment regimen with measurable disease. Patients in the study received lenalidomide in an amount of 25 mg orally once daily for days one to 21 in a 28-day cycle and continued therapy for 52 weeks as tolerated or until disease progression. A patient who achieved a complete response during the 52 week period was to receive two additional cycles of treatment prior to discontinuing treatment and entering the follow-up phase.
The patients who had received a median of 4 prior treatments (range: 1-7 prior treatments), were administered with lenalidomide in an amount of 25 mg orally once daily for 21 days in the treatment cycle of 28 days. Of the 49 patients, 26 had diffuse large cell lymphoma, 15 had mantle cell lymphoma, five patients had follicular lymphoma, and three had transformed lymphoma. Median time from diagnosis was 2.7 years (range 0.4-32) and patients had received a median of 4 (range […]) prior drug regimens for NHL. Ninety-three percent of the patients had received prior rituximab and 63% of the patients were rituximab refractory.

[2] = tested on: aggressive NHL; experiment: Clinical Study 2: lenalidomide monotherapy in aggressive NHL; assay type: in vivo, human
Experimental: In a separate clinical study, 86 patients received at least 25 mg of lenalidomide once daily on Days 1-21 every 28 days and continued therapy as tolerated or until disease progression. Forty-eight of these patients were evaluable for response assessment (Table 3). The median age was 65 years. The most common histology was DLBCL (63%). The median time from diagnosis to lenalidomide treatment was 2 years. Patients received a median of 4 prior treatment regimens for NHL. Median time from last rituximab treatment was 297 days. […] Ninety-six percent of the patients had received prior rituximab.

[3] = tested on: aggressive NHL; experiment: Study 1 and 2 taken together: response by predictive factors; assay type: in vivo, human
[4] = tested on: peripheral T-cell lymphomas (PTCL); experiment: Clinical Study 3: Phase II lenalidomide for peripheral T-cell lymphomas; assay type: in vivo; conditions: about 25 mg orally daily for 21 days followed by 7 days of rest; ten patients
Experimental: A multi-center, open label, phase II study was conducted to evaluate the efficacy of 3-(4-amino-1-oxo-1,3-dihydro-isoindol-2-yl)-piperidin-2,6-dione (lenalidomide) for peripheral T-cell lymphomas (PTCL). Patients with relapsed or refractory disease were eligible, as well as patients who had not previously had systemic therapy but who were ineligible for standard curative chemotherapy regimens due to comorbid illness. Each cycle (28 days) of treatment comprises administration of about 25 mg of 3-(4-amino-1-oxo-1,3-dihydro-isoindol-2-yl)-piperidin-2,6-dione (lenalidomide) given orally daily for 21 days followed by 7 days of rest, until disease progression, death or unacceptable toxicity.
Ten (9 males and 1 female) patients were enrolled. Median age of participants was 56 years (range, 42-76 years). Histologies of the patients included PTCL unspecified (n=4), angioimmunoblastic T-cell lymphoma (n=4), anaplastic large cell lymphoma (n=1), and gamma/delta T-cell lymphoma (n=1). Median number of prior lines of systemic therapy was one (range, 0-3). Median number of cycles was two (range, 1-8).

[5] = Aggressive, n=49, 25 mg orally once daily days 1-21 of 28-day cycle
[6] = DLBCL, n=26, 25 mg daily days 1-21 of 28
[7] = FCL, n=5, 25 mg daily days 1-21 of 28
[8] = MCL, n=15, 25 mg daily days 1-21 of 28
[9] = TSF, n=3, 25 mg daily days 1-21 of 28
[10] = of fourteen patients with SD at cycle 2
[11] = the four rituximab naïve patients
[12] = Aggressive NHL, 48 evaluable patients, at least 25 mg once daily Days 1-21 every 28 days
[13] = Diffuse large B-cell, 30 patients
[14] = Follicular center lymphoma grade 3, 1 patient
[15] = Mantle cell lymphoma, 14 patients
[16] = Transformed lymphoma, 3 patients
[17] = Study 1 and 2, time from rituximab <230 days, 40 patients
[18] = Study 1 and 2, time from rituximab ≧230 days, 57 patients
[19] = Study 1 and 2, tumor burden <50 cm^2, 66 patients
[20] = Study 1 and 2, tumor burden ≧50 cm^2, 29 patients

## Nc1cccc2c1CN(C1CCC(=O)NC1=O)C2=O (centres unmarked) [lenalidomide, 3-(4-amino-1-oxo-1,3-dihydro-isoindol-2-yl)-piperidine-2,6-dione]
[1]; <230 days since last rituximab therapy
  response to lenalidomide: 6%
[1]; >=230 days since last rituximab therapy
  response to lenalidomide: 52%
[1]; [5]
  CR, complete response (patients): 2
  CRu, complete response unconfirmed (patients): 4
  PD, progressive disease (patients): 21
  PR, partial response (patients): 11
  RR, response rate: 35%
[1]; DLBCL, diffuse large B-cell lymphoma, n=26, 25 mg daily days 1-21 of 28
  CR, complete response (patients): 1
[1]; [6]
  CRu, complete response unconfirmed (patients): 2
  PD, progressive disease (patients): 14
  PR, partial response (patients): 2
  RR, response rate: 19%
[1]; FCL, follicular-center lymphoma, n=5, 25 mg daily days 1-21 of 28
  CR, complete response (patients): 0
[1]; [7]
  CRu, complete response unconfirmed (patients): 1
  PD, progressive disease (patients): 2
  PR, partial response (patients): 2
  RR, response rate: 60%
[1]; MCL, mantle cell lymphoma, n=15, 25 mg daily days 1-21 of 28
  CR, complete response (patients): 1
[1]; [8]
  CRu, complete response unconfirmed (patients): 1
  PD, progressive disease (patients): 5
  PR, partial response (patients): 6
  RR, response rate: 53%
[1]; [9]
  CRu, complete response unconfirmed (patients): 0
  PD, progressive disease (patients): 0
  PR, partial response (patients): 1
  RR, response rate: 33%
[1]; TSF, transformed lymphoma, n=3, 25 mg daily days 1-21 of 28
  CR, complete response (patients): 0
[1]; absolute lymphocyte count <=0.6×10^9/L
  response to lenalidomide: 9%
[1]; absolute lymphocyte count >0.6×10^9/L
  response to lenalidomide: 42%
[1]; continued treatment
  patients with initial PR at 2 cycles who went on to CR/CRu with continued treatment: four
[1]; favorable values of disease burden, absolute lymphocyte count and time since last rituximab (n=23)
  Response Rate: 65%
[1]; first assessment, cycle 2
  patients with stable disease at the first (cycle 2) assessment: Fourteen
[1]; largest tumor lesion <=4.5 cm
  response to lenalidomide: 55%
[1]; largest tumor lesion >4.5 cm
  response to lenalidomide: 5%
[1]; of 28 patients
  patients with SD or PR at first assessment who improved their response with continued treatment: seven
  share of patients with SD or PR at first assessment who improved their response: 25%
[1]; of 49 patients
  patients with an objective response: Seventeen
[1]; [10]
  patients with SD at first assessment who went on to exhibit a response with continued treatment: three
  share of patients with SD at first assessment who went on to exhibit a response: 21%
[1]; patients not refractory to rituximab
  response to lenalidomide: 31%
[1]; patients refractory to rituximab
  response to lenalidomide: 30%
[1]; patients with favorable prognostic values
  Median progression-free survival: 7.5 months
[1]; patients with poor prognostic factors
  Median progression-free survival: 1.9 months
[1]; [11]
  patients with CR: two
  patients with PR: 1
  patients with SD: 1
[1]; tumor burden <50 cm^2
  response to lenalidomide: 52%
[1]; tumor burden >=50 cm^2
  response to lenalidomide: 0%
[1]; unfavorable values for these prognostic values (n=26)
  Response Rate: 8%
[1]; whole group (all patients), Kaplan-Meier
  Median progression-free survival: 3.7 months
[2]; <230 days from rituximab to lenalidomide treatment
  response to lenalidomide: 5%
[2]; [12]
  ORR, overall response rate: 27%
  PD, progressive disease (patients): 25
  PR, partial response (patients): 12
[2]; [13]
  CR, complete response (patients): 1
  ORR, overall response rate: 20%
  PD, progressive disease (patients): 19
  PR, partial response (patients): 5
[2]; [14]
  CR, complete response (patients): 0
  ORR, overall response rate: 100%
  PD, progressive disease (patients): 0
  PR, partial response (patients): 1
[2]; [15]
  CR, complete response (patients): 0
  ORR, overall response rate: 36%
  PD, progressive disease (patients): 9
  PR, partial response (patients): 5
[2]; [16]
  CR, complete response (patients): 0
  ORR, overall response rate: 33%
  PD, progressive disease (patients): 1
  PR, partial response (patients): 1
[2]; favorable values for both tumor burden and time from rituximab (N=19)
  ORR: 53%
[2]; tumor burden <50 cm^2
  response to lenalidomide: 33%
[2]; tumor burden ≧50 cm^2
  response to lenalidomide: 14%
[2]; unfavorable values (N=29)
  ORR: 10%
[2]; ≧230 days from rituximab to lenalidomide treatment
  response to lenalidomide: 46%
[3]; Study 1 and 2, Favorable = tumor burden <50 cm^2 and time since last rituximab ≧230 days, 43 patients
  Responders: 26
[3]; Study 1 and 2, Favorable = tumor burden <50 cm^2 and time since last rituximab ≧230 days, N=43
  Response Rate (ORR): 60%
[3]; Study 1 and 2, Unfavorable = tumor burden ≧50 cm^2 and/or time since last rituximab <230 days, 54 patients
  Responders: 4
[3]; Study 1 and 2, Unfavorable = tumor burden ≧50 cm^2 and/or time since last rituximab <230 days, N=54
  Response Rate (ORR): 7.4%
[3]; [17]
  Responders: 2
  Response Rate: 5%
[3]; [18]
  Responders: 28
  Response Rate: 49%
[3]; [19]
  Responders: 28
  Response Rate: 42%
[3]; [20]
  Responders: 2
  Response Rate: 6.9%
[3]; Study 1 and 2 taken together
  duration of response: approximately 6 months
[3]; Study 1 and 2 taken together, all patients
  Response Rate: 31%
[3]; Study 1 and 2 taken together, monotherapy in aggressive NHL
  side effects: manageable hematological side effects
[4]
  efficacy in peripheral T-cell lymphomas: effective in treating peripheral T-cell lymphomas
  tolerability of therapy: generally been well tolerated
